Experimental data published in ChEMBL document CHEMBL4002571, “Novel designed VmCT1 analogs with increased antimicrobial activity” (Eur J Med Chem, 2017).
Active and inactive are the calls of the source. The rule behind the calls is not given here.

Tests used:
[1] = system: Candida albicans; assay: Antifungal activity against Candida albicans MDM8 after 18 hrs by liquid growth inhibition assay; assay type: functional; settings: MDM8, 18 h, read-out: MIC100
[2] = system: Candida parapsilosis; assay: Antifungal activity against Candida parapsilosis IOC 4564 after 18 hrs by liquid growth inhibition assay; assay type: functional; settings: Lodderomyces parapsilosis, IOC 4564, 18 h; read-out: MIC100
[3] = system: Serratia marcescens; assay: Antibacterial activity against Serratia marcescens ATCC 4112 after 18 hrs by liquid growth inhibition assay; assay type: functional; settings: ATCC 4112, 18 h, read-out: MIC100
[4] = system: Pseudomonas aeruginosa; assay: Antibacterial activity against Pseudomonas aeruginosa ATCC 27853 after 18 hrs by liquid growth inhibition assay; assay type: functional; settings: ATCC 27853, 18 h, read-out: MIC100
[5] = system: Cladosporium herbarum; assay: Antifungal activity against Cladosporium herbarum after 72 hrs by liquid growth inhibition assay; assay type: functional; settings: read-out: MIC100
[6] = system: Cryptococcus neoformans; assay: Antifungal activity against Cryptococcus neoformans after 18 hrs by liquid growth inhibition assay; assay type: functional; settings: read-out: MIC100
[7] = system: Bacillus spizizenii; assay: Antibacterial activity against Bacillus subtilis ATCC 6633 after 18 hrs by liquid growth inhibition assay; assay type: functional; settings: ATCC 6633, 18 h, read-out: MIC100
[8] = system: Staphylococcus aureus; assay: Antibacterial activity against Staphylococcus aureus ATCC 29213 after 18 hrs by liquid growth inhibition assay; assay type: functional; settings: ATCC 29213, 18 h, read-out: MIC100
[9] = system: Staphylococcus epidermidis; assay: Antibacterial activity against Staphylococcus epidermidis ATCC 12228 after 18 hrs by liquid growth inhibition assay; assay type: functional; settings: ATCC 12228, 18 h, read-out: MIC100
[10] = system: Enterobacter cloacae; assay: Antibacterial activity against Enterobacter cloacae beta-12 after 18 hrs by liquid growth inhibition assay; assay type: functional; settings: beta-12, 18 h, read-out: MIC100
[11] = system: Candida tropicalis; assay: Antifungal activity against Candida tropicalis IOC 4560 after 18 hrs by liquid growth inhibition assay; assay type: functional; settings: IOC 4560, 18 h, read-out: MIC100
[12] = system: Aspergillus niger; assay: Antifungal activity against Aspergillus niger after 72 hrs by liquid growth inhibition assay; assay type: functional; settings: read-out: MIC100
[13] = system: Escherichia coli; assay: Antibacterial activity against Escherichia coli SBS 363 after 18 hrs by liquid growth inhibition assay; assay type: functional; settings: SBS 363, 18 h, read-out: MIC100
[14] = system: Escherichia coli; assay: Antibacterial activity against Escherichia coli D31 after 18 hrs by liquid growth inhibition assay; assay type: functional; settings: D31, 18 h, read-out: MIC100
[15] = system: Micrococcus luteus; assay: Antibacterial activity against Micrococcus luteus A270 after 18 hrs by liquid growth inhibition assay; assay type: functional; settings: A270, 18 h, read-out: MIC100
[16] = system: Erythrocyte; assay: Hemolytic activity in human erythrocytes after 1 hr; assay type: ADME, cell-based
[17] = system: Pseudomonas aeruginosa; assay: Antibacterial activity against Pseudomonas aeruginosa ATCC 9027 measured every 4 hrs by broth micro-dilution method; assay type: functional; settings: ATCC 9027, 4 h
[18] = system: Escherichia coli; assay: Antibacterial activity against Escherichia coli ATCC 25922 measured every 4 hrs by broth micro-dilution method; assay type: functional; settings: ATCC 25922, 4 h
[19] = system: Staphylococcus aureus; assay: Antibacterial activity against Staphylococcus aureus ATCC 25923 measured every 4 hrs by broth micro-dilution method; assay type: functional; settings: ATCC 25923, 4 h
[20] = system: Bacillus spizizenii; assay: Antibacterial activity against Bacillus subtilis ATCC 6633 measured every 4 hrs by broth micro-dilution method; assay type: functional; settings: ATCC 6633, 4 h
[21] = system: Candida parapsilosis; assay: Antifungal activity against Candida parapsilosis IOC 4564 up to 50 umol/L after 18 hrs by liquid growth inhibition assay; assay type: functional
[22] = system: Enterobacter cloacae; assay: Antibacterial activity against Enterobacter cloacae beta-12 up to 50 umol/L after 18 hrs by liquid growth inhibition assay; assay type: functional
[23] = system: Cladosporium herbarum; assay: Antifungal activity against Cladosporium herbarum up to 50 umol/L after 72 hrs by liquid growth inhibition assay; assay type: functional
[24] = system: Aspergillus niger; assay: Antifungal activity against Aspergillus niger up to 50 umol/L after 72 hrs by liquid growth inhibition assay; assay type: functional
[25] = system: Escherichia coli; assay: Antibacterial activity against Escherichia coli SBS 363 up to 50 umol/L after 18 hrs by liquid growth inhibition assay; assay type: functional
[26] = system: Bacillus spizizenii; assay: Antibacterial activity against Bacillus subtilis ATCC 6633 up to 50 umol/L after 18 hrs by liquid growth inhibition assay; assay type: functional

With H-FLGALWEVAKSVF-NH2 the MIC [1] was 12.5 µM, the MIC [2] was 50 µM and the MIC [3] was 1.56 µM. For the same substance, the MIC [4] was 0.78 µM, the MIC [5] was 25 µM and the MIC [6] was 6.25 µM. It also gave an MIC [7] of 12.5 µM, an MIC [8] of 6.25 µM and an MIC [9] of 6.25 µM. For the same substance, the MIC [10] was 25 µM, the MIC [11] was 12.5 µM and the MIC [12] was 25 µM. It also gave an MIC [13] of 12.5 µM, an MIC [14] of 12.5 µM and an MIC [15] of 1.56 µM. For the same substance, the MHC [16] was 1.6 µmol/L.
H-FLGALWKVAKSVF-NH2 was tested, and the MIC [1] was 1.56 µM, the MIC [2] was 1.56 µM and the MIC [3] was 0.78 µM. The MIC [4] was 0.39 µM, the MIC [5] was 12.5 µM and the MIC [6] was 1.56 µM. The MIC [7] was 3.12 µM, the MIC [8] was 1.56 µM and the MIC [9] was 1.56 µM. It also gave an MIC [10] of 6.25 µM, an MIC [11] of 1.56 µM and an MIC [12] of 6.25 µM. It also gave an MIC [13] of 1.56 µM, an MIC [14] of 1.56 µM and an MIC [15] of 1.56 µM. The MHC [16] was 1.6 µmol/L.
H-FLGALWNVAKKVF-NH2 gave an MIC [1] of 1.56 µM, an MIC [2] of 6.25 µM and an MIC [3] of 0.78 µM. It also gave an MIC [4] of 0.39 µM, an MIC [5] of 6.25 µM and an MIC [6] of 1.56 µM. The MIC [7] was 6.25 µM, the MIC [8] was 1.56 µM and the MIC [9] was 1.56 µM. For the same substance, the MIC [10] was 6.25 µM, the MIC [11] was 3.12 µM and the MIC [12] was 6.25 µM. The MIC [13] was 1.56 µM, the MIC [14] was 1.56 µM and the MIC [15] was 1.56 µM. The MHC [16] was 1.6 µmol/L.
Substance H-FLGALWNVAKSVF-NH2 has an MIC [1] of 12.5 µM, an MIC [2] of 25 µM and an MIC [3] of 1.56 µM. It also gave an MIC [4] of 0.78 µM, an MIC [5] of 50 µM and an MIC [6] of 3.12 µM. For the same substance, the MIC [7] was 25 µM, the MIC [8] was 3.12 µM and the MIC [9] was 3.12 µM. It also gave an MIC [17] of 10 µM, an MIC [18] of 25 µM and an MIC [10] of 25 µM. For the same substance, the MIC [11] was 6.25 µM, the MIC [12] was 25 µM and the MIC [19] was 10 µM. For the same substance, the MIC [14] was 3.12 µM, the MIC [20] was 20 µM and the MIC [15] was 1.56 µM. It also gave an MHC [16] of 6.25 µmol/L.
In the case of H-FLGALWNVWKSVF-NH2, the MIC [1] is reported as 1.56 µM, the MIC [2] is reported as 50 µM and the MIC [3] is reported as 1.56 µM. For the same substance, the MIC [4] was 0.78 µM, the MIC [5] was 50 µM and the MIC [6] was 3.12 µM. For the same substance, the MIC [7] was 6.25 µM, the MIC [8] was 1.56 µM and the MIC [9] was 3.12 µM. For the same substance, the MIC [10] was 6.25 µM, the MIC [11] was 6.25 µM and the MIC [12] was 50 µM. The MIC [13] was 1.56 µM, the MIC [14] was 1.56 µM and the MIC [15] was 1.56 µM. For the same substance, the MHC [16] was 1.6 µmol/L.
For H-FLGELWNVAKSVF-NH2, the “growth inhibition (GI)” value [21] was “inactive”, the MIC [1] was 50 µM and the MIC [3] was 3.12 µM. The “growth inhibition (GI)” value [22] was “inactive”, the MIC [4] was 3.12 µM and the MIC [6] was 12.5 µM. The MIC [8] was 50 µM, the “growth inhibition (GI)” value [23] was “inactive” and the “growth inhibition (GI)” value [24] was “inactive”. For the same substance, the MIC [9] was 50 µM, the MIC [11] was 12.5 µM and the “growth inhibition (GI)” value [25] was “inactive”. The “growth inhibition (GI)” value [26] was “inactive”, the MIC [14] was 50 µM and the MIC [15] was 25 µM. The MHC [16] was 25 µmol/L.
In the case of H-FLGELWNVWKSVF-NH2, the “growth inhibition (GI)” value [21] is reported as “inactive”, the MIC [1] is reported as 6.25 µM and the MIC [3] is reported as 3.12 µM. For the same substance, the MIC [4] was 3.12 µM, the MIC [6] was 6.25 µM and the MIC [7] was 12.5 µM. The MIC [8] was 12.5 µM, the “growth inhibition (GI)” value [23] was “inactive” and the “growth inhibition (GI)” value [24] was “inactive”. For the same substance, the MIC [9] was 6.25 µM, the MIC [10] was 50 µM and the MIC [11] was 12.5 µM. The MIC [13] was 12.5 µM, the MIC [14] was 6.25 µM and the MIC [15] was 3.12 µM. The MHC [16] was 1.6 µmol/L.
H-FLKALWNVAKSVF-NH2 gave an MIC [1] of 3.12 µM, an MIC [2] of 6.25 µM and an MIC [3] of 1.56 µM. For the same substance, the MIC [4] was 0.78 µM, the MIC [5] was 25 µM and the MIC [6] was 3.12 µM. For the same substance, the MIC [7] was 6.25 µM, the MIC [8] was 3.12 µM and the MIC [9] was 3.12 µM. For the same substance, the MIC [10] was 6.25 µM, the MIC [11] was 3.12 µM and the MIC [12] was 12.5 µM. The MIC [13] was 1.56 µM, the MIC [14] was 1.56 µM and the MIC [15] was 0.78 µM. It also gave an MHC [16] of 1.6 µmol/L.
